Measured values taken from patent publication US8686022B2, “7-(piperazine-1-ymethyl)-1H-indole-2-carboxylic acid (phenyl)-amide derivatives and allied compounds as p38 MAP kinase inhibitors for the treatment of respiratory diseases” (Boehringer Ingelheim International GmbH, priority 2008, dated 2014).
pIC50: −log10 of the molar value. Values after ≈ are worked out from the molar mass of the structure shown.

Columns and labels:
[1] = Determining the solubility (saturated solution in McIlvaine buffer pH 7.4, UV spectroscopy); assay type: physicochemical; conditions: pH 7.4, aqueous buffer, thermodynamic from solid, shaken 2 hours, 0.75 mg solid in 0.75 ml
Procedure: Determining the Solubility:
Saturated solutions are prepared in suitable well dishes by adding 0.75 ml of a McIlvaine buffer (pH 7.4) to the well in question containing 0.75 mg of solid of an active substance. The wells are shaken for 2 hours and then filtration is carried out through a suitable filter membrane (typically polytetrafluoroethylene with a pore size of 0.45 μm). Filter absorption is prevented by discarding the first few drops of filtrate. The amount of active substance dissolved is determined by UV spectroscopy.

p38 MAP-kinase = p38 MAP-kinase (Homo sapiens, UniProt Q16539); assay: p38 MAP-kinase enzymatic assay (phosphorylation of GST-tagged ATF2, chemoluminescence); assay type: biochemical; conditions: inhibitor concentration 1 μM; activated p38 MAP-kinase 1 nM; ATP 100 μM; read-out: p38 (% Inh @ 1 μM)
p38 MAP-kinase, sequence (Q16539 whole entry): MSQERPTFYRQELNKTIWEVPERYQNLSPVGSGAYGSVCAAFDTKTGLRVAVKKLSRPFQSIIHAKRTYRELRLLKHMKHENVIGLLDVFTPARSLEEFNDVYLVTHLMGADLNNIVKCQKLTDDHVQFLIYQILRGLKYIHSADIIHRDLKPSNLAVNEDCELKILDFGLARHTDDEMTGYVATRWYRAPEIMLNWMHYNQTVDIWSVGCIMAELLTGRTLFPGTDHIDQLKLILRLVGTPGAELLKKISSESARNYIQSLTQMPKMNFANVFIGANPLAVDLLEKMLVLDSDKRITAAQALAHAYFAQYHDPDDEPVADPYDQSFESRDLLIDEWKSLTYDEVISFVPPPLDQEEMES
Procedure: In this, the amount of a substrate phosphorylated by the kinase is quantified. The test is carried out as follows:
The kinase reaction is carried out in the presence of HEPES (20 mM, pH 7), MgCl2 (10 mM), DTT (1 mM) and TWEEN20 (0.01%). First, dimethylsulphoxide or inhibitor (final concentration: 1 μM) dissolved in dimethylsulphoxide are placed in a reaction vessel. Then the activated p38 MAP-kinase (final concentration 1 nM) is added and the mixture is incubated for 4 h at ambient temperature. Then a mixture of substrate (GST-tagged ATF2) and ATP is added and everything is incubated together for a further hour (final concentration ATP: 100 μM; final concentration ATF2: 10 nM).
The concentration of phosphorylated ATF2 is quantified by chemoluminescence-induced light emission. For this, a glutathione donor bead (final concentration: 5 μg/ml) which binds to the gluthathione on the ATF2 and phospho-ATF2 antibodies are added to the reaction mixture (final concentration: 3 nM; this binds the phosphate group added by the kinase reaction) to which a Protein A Acceptor Bead (final concentration: 5 μg/ml) binds. These components are dissolved in a buffer which contains 20 mM HEPES pH 7.0, 200 mM NaCL, 80 mM EDTA as well as 0.3% BSA. This reaction mixture is incubated in the dark for 1 hour at ambient temperature. When these beads come physically close, visible light is emitted which is measured in a photometer at 520-620 nm.
To determine the inhibitory activity of the compounds according to the invention a calculation is made to determine the percentage by which the kinase activity is inhibited at a fixed inhibitor concentration of 1 μM. The maximum activity is determined by non-inhibited kinase. The minimum activity or nonspecific background activity is determined using a reaction mixture without kinase.
Table 2 summarises the degree of inhibition of the enzyme p38 MAP-kinase—as described hereinbefore—mediated by the compounds according to the invention detailed in the section “Preparation of the final compounds”.

cytochrome P450 2C9 = cytochrome P450 2C9 (Homo sapiens, UniProt P11712); assay: Determining the cyp2C9 activity (O-demethylation of [O-methyl-14C]-naproxen); assay type: in vitro ADME; conditions: human recombinant cytochrome P450 2C9; 37° C.; <0.4 μM when inhibition >50% at lowest concentration; read-out: CYP 2C9 IC50
cytochrome P450 2C9, sequence (P11712 whole entry): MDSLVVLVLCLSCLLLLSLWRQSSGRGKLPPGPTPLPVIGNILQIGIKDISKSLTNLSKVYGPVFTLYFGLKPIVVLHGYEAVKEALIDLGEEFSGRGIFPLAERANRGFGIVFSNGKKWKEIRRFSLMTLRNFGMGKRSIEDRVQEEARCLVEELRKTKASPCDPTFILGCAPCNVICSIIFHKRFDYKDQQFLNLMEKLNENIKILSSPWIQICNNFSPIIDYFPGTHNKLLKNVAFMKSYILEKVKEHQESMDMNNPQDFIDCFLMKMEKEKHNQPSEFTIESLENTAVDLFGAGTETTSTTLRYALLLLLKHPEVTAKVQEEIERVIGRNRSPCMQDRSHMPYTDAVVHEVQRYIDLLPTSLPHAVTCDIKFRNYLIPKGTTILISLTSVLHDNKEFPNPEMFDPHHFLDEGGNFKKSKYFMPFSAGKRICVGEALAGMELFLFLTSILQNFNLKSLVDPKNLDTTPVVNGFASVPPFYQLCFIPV
Procedure: Determining the cyp2C9 Activity:
The assay is carried out in a robot system with 96-well plates. The final incubation volume is 200 μl of TRIS-Puffer (0.1 M), magnesium chloride (5 mM), recombinant protein (40 pmol/ml), ^14C-labelled naproxen (80 μM) and the test compound in one of 4 concentrations (50 μM, 10 μM, 2 μM and 0.4 μM) as a duplicate in each case. After a short preincubation period the reactions are started by the addition of the cofactor (NADPH, 1 mM) and ended after 15 min by the addition of 50 μl of a 10% aqueous trichloroacetic acid solution. One aliquot of the incubate is transferred onto a 96-well solid phase extraction plate and extracted. The ^14C-formaldehyde formed during the reaction is not retained on the solid phase extraction plate and is thus separated from the unmetabolised substrate by washing the solid phase extraction plate with water. One aliquot of the eluate is transferred into a well plate suitable for liquid scintillation. […] The IC50 is determined by the least squares method using the following formula: control activity=(100% control activity/(1+(I/IC50)S))−B where I=Inhibitor concentration S=Pitch B=Background activity
When the inhibition of the reaction is >50% even at the lowest concentration of the test compound, the IC50 is given as <0.4 μM.

| Structure (SMILES) | solubility at 2 h [1] [µg/mL] | inhibition at 1 µM (p38 MAP-kinase) [%] | pIC50 (cytochrome P450 2C9) |
| --- | --- | --- | --- |
| COc1c(NC(=O)c2cc3cccc(CN4CCN(C(=O)CN5CC[C@H](O)C5)CC4)c3n2C)cc(C(C)(C)C)cc1NS(C)(=O)=O [1(15), (S)-7-{4-[2-(3-hydroxy-pyrrolidin-1-yl)-acetyl]-piperazin-1-ylmethyl}-1-methyl-1H-indole-2-carboxylic acid-(5-tert-butyl-3-methanesulphonylamino-2-methoxy-phenyl)-amide] | 73 (≈ 111 µM) | 98.9 | 5.92 |
| COc1c(NC(=O)c2cc3cccc(CN4CCN(C(=O)CN5CCCC5)CC4)c3n2C)cc(C(C)(C)C)cc1NS(C)(=O)=O [1(16), 1-methyl-7-[4-(2-pyrrolidin-1-yl-acetyl)-piperazin-1-ylmethyl]-1H-indole-2-carboxylic acid-(5-tert-butyl-3-methanesulphonylamino-2-methoxy-phenyl)-amide] | 620 (≈ 971 µM) | 98.4 | 4.69 |
| COc1c(NC(=O)c2cc3cccc(CN4CCN(C(=O)CN5CCN(C)CC5)CC4)c3n2C)cc(C(C)(C)C)cc1NS(C)(=O)=O [1(17), 1-methyl-7-{4-[2-(4-methyl-piperazin-1-yl)-acetyl]-piperazin-1-ylmethyl}-1H-indole-2-carboxylic acid-(5-tert-butyl-3-methanesulphonylamino-2-methoxy-phenyl)-amide] | 46 (≈ 68.9 µM) | 99.1 | 6.00 |
| COc1c(NC(=O)c2cc3cccc(CC4CCCN(C(=O)[C@@H]5CCCN5C)CC4)c3n2C)cc(C(C)(C)C)cc1NS(C)(=O)=O (stereo partly drawn) [1(18), 1-methyl-7-[1-((2S)-1-methyl-pyrrolidine-2-carbonyl)-azepan-4-ylmethyl]-1H-indole-2-carboxylic acid-(5-tert-butyl-3-methanesulphonylamino-2-methoxy-phenyl)-amide] | 80 (≈ 123 µM) | 98 | 6.08 |
| COc1c(NC(=O)c2cc3cccc(CC4CCCN(C(=O)C5CCN(C)CC5)CC4)c3n2C)cc(C(C)(C)C)cc1NS(C)(=O)=O (stereo not drawn) [1(19), 1-methyl-7-[1-(1-methyl-piperidine-4-carbonyl)-azepan-4-ylmethyl]-1H-indole-2-carboxylic acid-(5-tert-butyl-3-methanesulphonylamino-2-methoxy-phenyl)-amide] | 98 (≈ 147 µM) | 98.5 | 5.44 |
| COc1c(NC(=O)c2cc3cccc(CC4CCCN(C(=O)[C@H]5CCCN5C)CC4)c3n2C)cc(C(C)(C)C)cc1NS(C)(=O)=O (stereo partly drawn) [1(20), 1-methyl-7-[1-((2R)-1-methyl-pyrrolidine-2-carbonyl)-azepan-4-ylmethyl]-1H-indole-2-carboxylic acid-(5-tert-butyl-3-methanesulphonylamino-2-methoxy-phenyl)-amide] | 124 (≈ 190 µM) | 99.1 | 5.59 |
| COc1c(NC(=O)c2cc3cccc(CN4CCCN(C(=O)[C@H]5CCCN5C)CC4)c3n2C)cc(C(C)(C)C)cc1NS(C)(=O)=O [1(21), 1-methyl-7-[4-((2R)-1-methyl-pyrrolidine-2-carbonyl)-[1,4]diazepan-1-ylmethyl]-1H-indole-2-carboxylic acid-(5-tert-butyl-3-methanesulphonylamino-2-methoxy-phenyl)-amide] | 45 (≈ 68.9 µM) | 98.9 | 5.40 |
| COc1c(NC(=O)c2cc3cccc(CN4CCC(C(=O)N5CCN(C)CC5)CC4)c3n2C)cc(C(C)(C)C)cc1NS(C)(=O)=O [1(22), 1-methyl-7-[4-(4-methyl-piperazine-1-carbonyl)-piperidin-1-ylmethyl]-1H-indole-2-carboxylic acid-(5-tert-butyl-3-methanesulphonylamino-2-methoxy-phenyl)-amide] | 42 (≈ 64.3 µM) | 99.1 | 5.81 |
| COc1c(NC(=O)c2cc3cccc(CN4CCC(C(=O)N5CC[C@H](N(C)C)C5)CC4)c3n2C)cc(C(C)(C)C)cc1NS(C)(=O)=O [1(23), (S)-7-[4-(3-dimethylamino-pyrrolidine-1-carbonyl)-piperidin-1-ylmethyl]-1-methyl-1H-indole-2-carboxylic acid-(5-tert-butyl-3-methanesulphonylamino-2-methoxy-phenyl)-amide] | 280 (≈ 420 µM) | 97 | 5.75 |
| COc1c(NC(=O)c2cc3cccc(CN4CCC(C(=O)N5CC[C@@H](N(C)C)C5)CC4)c3n2C)cc(C(C)(C)C)cc1NS(C)(=O)=O [1(24), (R)-7-[4-(3-dimethylamino-pyrrolidine-1-carbonyl)-piperidin-1-ylmethyl]-1-methyl-1H-indole-2-carboxylic acid-(5-tert-butyl-3-methanesulphonylamino-2-methoxy-phenyl)-amide] | 36 (≈ 54 µM) | 54.2 | 5.61 |
| CN1CCC[C@H]1C(=O)N1CCN(Cc2cccc3cc(C(=O)Nc4cccc(N5CCOCC5)c4)n(C)c23)CC1 [1(25), (S)-1-methyl-7-[4-(1-methyl-pyrrolidine-2-carbonyl)-piperazin-1-ylmethyl]-1H-indole-2-carboxylic acid-(3-morpholin-4-yl-phenyl)-amide] | 48 (≈ 88.1 µM) | 35.4 | 5.10 |
| COc1c(NC(=O)c2cc3cccc(CN4CCN(C(=O)N5CC[C@H](N(C)C)C5)CC4)c3n2C)cc(C(C)(C)C)cc1NS(C)(=O)=O [2(1), (S)-7-[4-(3-dimethylamino-pyrrolidine-1-carbonyl)-piperazin-1-ylmethyl]-1-methyl-1H-indole-2-carboxylic acid (5-tert-butyl-3-methanesulphonylamino-2-methoxy-phenyl)-amide] | 28 (≈ 41.9 µM) | 99 | 6.06 |
| COc1c(NC(=O)c2cc3cccc(CN4CCCN(C(=O)[C@H]5CCN(C)C5)CC4)c3n2C)cc(C(C)(C)C)cc1NS(C)(=O)=O [5(1), (S)-1-methyl-7-[4-(1-methyl-pyrrolidine-3-carbonyl)-[1,4]diazepan-1-ylmethyl]-1H-indole-2-carboxylic acid-(5-tert-butyl-3-methanesulphonylamino-2-methoxy-phenyl)-amide] | 170 (≈ 260 µM) | 94.9 | 5.69 |
| COc1c(NC(=O)c2cc3cccc(CN4CCCN(C(=O)[C@@H]5CCN(C)C5)CC4)c3n2C)cc(C(C)(C)C)cc1NS(C)(=O)=O [5(2), (R)-1-methyl-7-[4-(1-methyl-pyrrolidine-3-carbonyl)-[1,4]diazepan-1-ylmethyl]-1H-indole-2-carboxylic acid-(5-tert-butyl-3-methanesulphonylamino-2-methoxy-phenyl)-amide] | 160 (≈ 245 µM) | 98 | 6.00 |
| COc1c(NC(=O)c2cc3cccc(CN4CCN(C(=O)CN5CC[C@@H](O)C5)CC4)c3n2C)cc(C(C)(C)C)cc1NS(C)(=O)=O [6(1), (R)-7-{4-[2-(3-hydroxy-pyrrolidin-1-yl)-acetyl]-piperazin-1-ylmethyl}-1-methyl-1H-indole-2-carboxylic acid-(5-tert-butyl-3-methanesulphonylamino-2-methoxy-phenyl)-amide] | 47 (≈ 71.8 µM) | 99.2 | 6.33 |
